Laboratory results from patent US20260347373A1, “HETEROCYCLIC COMPOUNDS, COMPOSITIONS THEREOF, AND METHODS OF TREATMENT THEREWITH” (BeOne Medicines I GmbH, priority 2023, published 2026).

Tests used:
[1] = molecular target: WT KRAS (Homo sapiens, UniProt P01116); test: KRAS WT Probe Displacement Assay (TR-FRET, GDP-loaded); type: binding; conditions: KRAS WT, read-out: KRAS^WT Probe Displacement Assay IC50
Excerpt: (§1) The synthetic routes of probe 1 and 2, which have been disclosed in PCT/CN2022/070676, are hereby incorporated herein.

[2] = molecular target: KRAS G12D (Homo sapiens, UniProt P01116, G12D); test: KRAS G12D Probe Displacement Assay (TR-FRET, GDP-loaded); type: binding; conditions: KRAS G12D, read-out: KRAS^G12D Probe Displacement Assay IC50
Chain of KRAS G12D (P01116 1-188 isoform P01116-2 G12D): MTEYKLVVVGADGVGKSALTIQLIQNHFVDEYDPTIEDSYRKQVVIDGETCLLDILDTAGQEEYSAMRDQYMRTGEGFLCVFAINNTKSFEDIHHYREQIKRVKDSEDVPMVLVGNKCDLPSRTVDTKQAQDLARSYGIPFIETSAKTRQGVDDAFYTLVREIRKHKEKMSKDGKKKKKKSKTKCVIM
Excerpt: as §1

Chain of WT KRAS (P01116 1-188 isoform P01116-2): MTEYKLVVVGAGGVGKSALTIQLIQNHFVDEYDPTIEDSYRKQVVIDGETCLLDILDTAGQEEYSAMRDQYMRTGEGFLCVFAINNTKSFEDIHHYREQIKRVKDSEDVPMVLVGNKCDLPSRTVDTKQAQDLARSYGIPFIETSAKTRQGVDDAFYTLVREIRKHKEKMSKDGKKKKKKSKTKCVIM

| SMILES | IC50 [1] | IC50 [2] |
| --- | --- | --- |
| Nc1cc(Cl)c(C(F)(F)F)c(-c2nc3c4c(nc(OCC5(CN6CCC(=C(F)F)C6)CC5)nc4c2F)N2C[C@H]4CC[C@H](N4)[C@H]2CCO3)c1 [Example 151, 3-chloro-5-((6aR,7S,10R)-13-((1-((3-(difluoromethylene)pyrrolidin-1-yl)methyl)cyclopropyl)methoxy)-1-fluoro-5,6,6a,7,8,9,10,11-octahydro-4-oxa-3,11a,12,14,15-pentaaza-7,10-methano-cyclohepta[4,5]cycloocta [1,2,3-de]naphthalen-2-yl)-4-(trifluoromethyl)aniline] | 3 to 1000 nM | < 0.3 nM |
| Cc1cc(N)cc(-c2nc3c4c(nc(OC[C@@H]5OC[C@H]5N(C)C)nc4c2F)N2C[C@H]4CC[C@H](N4)[C@H]2CCO3)c1C(F)(F)F [Example 130, (2R,3R)-2-((((6aR,7S,10R)-2-(5-amino-3-methyl-2-(trifluoromethyl)phenyl)-1-fluoro-5,6,6a,7,8,9,10,11-octahydro-4-oxa-3,11a,12,14,15-pentaaza-7,10-methanocyclohepta[4,5]cycloocta [1,2,3-de]naphthalen-13-yl)oxy)methyl)-N,N-dimethyloxetan-3-amine] | 3 to 1000 nM | 0.3 to 3 nM |
| Cc1cc(N)cc(-c2nc3c4c(nc(OCC5(CN6CC7C(C6)C7(F)F)CC5)nc4c2F)N2C[C@H]4CC[C@H](N4)[C@H]2CCO3)c1C(F)(F)F (stereo partly drawn) [Example 168, 3-((6aR,7S,10R)-13-((1-((6,6-difluoro-3-azabicyclo[3.1.0]hexan-3-yl)methyl)cyclopropyl)methoxy)-1-fluoro-5,6,6a,7,8,9,10,11-octahydro-4-oxa-3,11a,12,14,15-pentaaza-7,10-methanocyclohepta[4,5]cycloocta[1,2,3-de]naphthalen-2-yl)-5-methyl-4-(trifluoromethyl)aniline] | 3 to 1000 nM | < 0.3 nM |
| Cc1cc(N)cc(-c2nc3c4c(nc(OCC5(CN6CC7CC7(CO)C6)CC5)nc4c2F)N2C[C@H]4CC[C@H](N4)[C@H]2CCO3)c1C(F)(F)F (mixture of isomers) [Example 99, (3-((1-((((6aR,7S,10R)-2-(5-amino-3-methyl-2-(trifluoromethyl)phenyl)-1-fluoro-5,6,6a,7,8,9,10,11-octahydro-4-oxa-3,11a,12,14,15-pentaaza-7,10-methanocyclohepta [4,5]cycloocta [1,2,3-de]naphthalen-13-yl)oxy)methyl)cyclopropyl)methyl)-3-azabicyclo[3.1.0]hexan-1-yl)methanol] | 0.3 to 3 nM | < 0.3 nM |
| Cc1cc(N)cc(-c2nc3c4c(nc(OC[C@@]56CCCN5CC(F)(F)C6)nc4c2F)N2C[C@H]4CC[C@H](N4)[C@H]2CCO3)c1C(F)(F)F [Example 33, 3-((6aR,7S,10R)-13-(((S)-2,2-difluorotetrahydro-1H-pyrrolizin-7a(5H)-yl)methoxy)-1-fluoro-5,6,6a,7,8,9,10,11-octahydro-4-oxa-3,11a,12,14,15-pentaaza-7,10-methanocyclohepta[4,5]cycloocta [1,2,3-de]naphthalen-2-yl)-5-methyl-4-(trifluoromethyl)aniline] | 3 to 1000 nM | < 0.3 nM |
| Cc1cc(N)cc(-c2nc3c4c(nc(OCC5(C(C)N(C)C)CC5(F)F)nc4c2F)N2C[C@H]4CC[C@H](N4)[C@H]2CCO3)c1C(F)(F)F (single isomer, unassigned) [Example 59] | 3 to 1000 nM | < 0.3 nM |
| [2H]C([2H])([2H])N1C[C@H](F)C[C@H]1[C@H](C)Oc1nc2c3c(nc(-c4cc(N)cc(C)c4C(F)(F)F)c(F)c3n1)OCC[C@@H]1[C@@H]3CC[C@H](CN21)N3 [Example 221, 3-((6aR,7S,10R)-1-fluoro-13-((S)-1-((2S,4R)-4-fluoro-1-(methyl-d3)pyrrolidin-2-yl)ethoxy)-5,6,6a,7,8,9,10,11-octahydro-4-oxa-3,11a,12,14,15-pentaaza-7,10-methanocyclohepta[4,5]cycloocta[1,2,3-de]naphthalen-2-yl)-5-methyl-4-(trifluoromethyl)aniline] | 3 to 1000 nM | < 0.3 nM |
| COC[C@@H]1[C@H]2C[C@H]2CN1CC1(COc2nc3c4c(nc(-c5cc(N)cc(C)c5C(F)(F)F)c(F)c4n2)OCC[C@@H]2[C@@H]4CC[C@H](CN32)N4)CC1 [Example 182, 3-((6aR,7S,10R)-1-fluoro-13-((1-(((1S,2S,5R)-2-(methoxymethyl)-3-azabicyclo[3.1.0]hexan-3-yl)methyl)cyclopropyl)methoxy)-5,6,6a,7,8,9,10,11-octahydro-4-oxa-3,11a,12,14,15-pentaaza-7,10-methanocyclohepta[4,5]cycloocta[1,2,3-de]naphthalen-2-yl)-5-methyl-4-(trifluoromethyl)aniline] | 3 to 1000 nM | < 0.3 nM |
| Cc1cc(N)cc(-c2nc3c4c(nc(OC[C@@]5(C)CCCN(C6COC6)C5)nc4c2F)N2C[C@H]4CC[C@H](N4)[C@H]2CCO3)c1C(F)(F)F [Example 197, 3-((6aR,7S,10R)-1-fluoro-13-(((S)-3-methyl-1-(oxetan-3-yl)piperidin-3-yl)methoxy)-5,6,6a,7,8,9,10,11-octahydro-4-oxa-3,11a,12,14,15-pentaaza-7,10-methanocyclohepta[4,5]cycloocta[1,2,3-de]naphthalen-2-yl)-5-methyl-4-(trifluoromethyl)aniline] | 3 to 1000 nM | < 0.3 nM |
| Cc1cc(N)cc(-c2nc3c4c(nc(OC[C@@H]5COC[C@H]5N(C)C)nc4c2F)N2C[C@H]4CC[C@H](N4)[C@H]2CCO3)c1C(F)(F)F [Example 13, (3S,4S)-4-((((6aR,7S,10R)-2-(5-amino-3-methyl-2-(trifluoromethyl)phenyl)-1-fluoro-5,6,6a,7,8,9,10,11-octahydro-4-oxa-3,11a,12,14,15-pentaaza-7,10-methanocyclohepta[4,5]cycloocta [1,2,3-de]naphthalen-13-yl)oxy)methyl)-N,N-dimethyltetrahydrofuran-3-amine] | 3 to 1000 nM | < 0.3 nM |
| Cc1cc(N)cc(-c2nc3c4c(nc(OCC5(CN6CCCC6)CC5)nc4c2F)N2C[C@H]4CC[C@H](N4)[C@H]2CCO3)c1C(F)(F)F [Example 77, 3-((6aR,7S,10R)-1-fluoro-13-((1-(pyrrolidin-1-ylmethyl)cyclopropyl)methoxy)-5,6,6a,7,8,9,10,11-octahydro-4-oxa-3,11a,12,14,15-pentaaza-7,10-methanocyclohepta[4,5]cycloocta[1,2,3-de]naphthalen-2-yl)-5-methyl-4-(trifluoromethyl)aniline] | 3 to 1000 nM | < 0.3 nM |
| Cc1cc(N)cc(-c2nc3c4c(nc(OCC5(CN6C[C@@H](C)O[C@@H](C)C6)CC5(F)F)nc4c2F)N2C[C@H]4CC[C@H](N4)[C@H]2CCO3)c1C(F)(F)F (single isomer, unassigned) [Example 22] | 3 to 1000 nM | < 0.3 nM |
| Cc1cc(N)cc(-c2nc3c4c(nc(OCC5(CN6C[C@@H]7C[C@H]6CO7)CC5)nc4c2F)N2C[C@H]4CC[C@H](N4)[C@H]2CCO3)c1C(F)(F)F [Example 68, 3-((6aR,7S,10R)-13-((1-(((1S,4S)-2-oxa-5-azabicyclo[2.2.1]heptan-5-yl)methyl)cyclopropyl)methoxy)-1-fluoro-5,6,6a,7,8,9,10,11-octahydro-4-oxa-3,11a,12,14,15-pentaaza-7,10-methanocyclohepta[4,5]cycloocta [1,2,3-de]naphthalen-2-yl)-5-methyl-4-(trifluoromethyl)aniline] | 3 to 1000 nM | < 0.3 nM |
| CN1CCN(C)C(C)(COc2nc3c4c(nc(-c5cc(N)cc(Cl)c5C(F)(F)F)c(F)c4n2)OCC[C@@H]2[C@@H]4CC[C@H](CN32)N4)C1 (single isomer, unassigned) [Example 3] | 3 to 1000 nM | < 0.3 nM |
| Cc1cc(N)cc(-c2nc3c4c(nc(OCC56CCCN5CC(F)(F)C6)nc4c2F)N2C[C@H]4CC[C@H](N4)[C@H]2CCO3)c1C(F)(F)F (stereo partly drawn) [Example 1, 3-((6aR,7S,10R)-13-((2,2-difluorotetrahydro-1H-pyrrolizin-7a(5H)-yl)methoxy)-1-fluoro-5,6,6a,7,8,9,10,11-octahydro-4-oxa-3,11a,12,14,15-pentaaza-7,10-methanocyclohepta[4,5]cycloocta[1,2,3-de]naphthalen-2-yl)-5-methyl-4-(trifluoromethyl)aniline] | 3 to 1000 nM | 0.3 to 3 nM |
| Cc1nc(N)cc(-c2nc3c4c(nc(OC[C@]5(CN(C)C)CC5(F)F)nc4c2F)N2C[C@H]4CC[C@H](N4)[C@H]2CCO3)c1C(F)(F)F [Example 48, 4-((6aR,7S,10R)-13-(((R)-1-((dimethylamino)methyl)-2,2-difluorocyclopropyl)methoxy)-1-fluoro-5,6,6a,7,8,9,10,11-octahydro-4-oxa-3,11a,12,14,15-pentaaza-7,10-methanocyclohepta[4,5]cycloocta [1,2,3-de]naphthalen-2-yl)-6-methyl-5-(trifluoromethyl)pyridin-2-amine] | 3 to 1000 nM | < 0.3 nM |
| Cc1cc(N)cc(-c2nc3c4c(nc(OCC56C[C@@H](F)CN5C[C@H](F)C6)nc4c2F)N2C[C@H]4CC[C@H](N4)[C@H]2CCO3)c1C(F)(F)F [Example 36, 3-((6aR,7S,10R)-13-(((2R,6R)-2,6-difluorotetrahydro-1H-pyrrolizin-7a(5H)-yl)methoxy)-1-fluoro-5,6,6a,7,8,9,10,11-octahydro-4-oxa-3,11a,12,14,15-pentaaza-7,10-methanocyclohepta[4,5]cycloocta [1,2,3-de]naphthalen-2-yl)-5-methyl-4-(trifluoromethyl)aniline] | 3 to 1000 nM | < 0.3 nM |
| COC[C@H]1[C@H]2C[C@H]2CN1CC1(COc2nc3c4c(nc(-c5cc(N)cc(C)c5C(F)(F)F)c(F)c4n2)OCC[C@@H]2[C@@H]4CC[C@H](CN32)N4)CC1 [Example 183, 3-((6aR,7S,10R)-1-fluoro-13-((1-(((1S,2R,5R)-2-(methoxymethyl)-3-azabicyclo[3.1.0]hexan-3-yl)methyl)cyclopropyl)methoxy)-5,6,6a,7,8,9,10,11-octahydro-4-oxa-3,11a,12,14,15-pentaaza-7,10-methanocyclohepta[4,5]cycloocta[1,2,3-de]naphthalen-2-yl)-5-methyl-4-(trifluoromethyl)aniline] | 3 to 1000 nM | < 0.3 nM |
